In PubChem BioAssay (NCI):
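Five concentrations, 48 hours, 96-well plates. GI50 marks 50% less growth. The concentration for full growth arrest is given as TGI.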

What was measured:
Assay in all cases: NCI tumour cell line growth inhibition, 48 h
OVCAR-3 ovarian = test system: OVCAR-3 ovarian
ACHN renal = test system: ACHN renal
K-562 leukemia = test system: K-562 leukemia
PC-3 prostate = test system: PC-3 prostate
SF-539 CNS = test system: SF-539 CNS
HCT-15 colon = test system: HCT-15 colon
SF-295 CNS = test system: SF-295 CNS
SK-MEL-5 melanoma = test system: SK-MEL-5 melanoma
HT29 colon = test system: HT29 colon
A549 NSCLC = test system: A549 NSCLC
TK-10 renal = test system: TK-10 renal
EKVX NSCLC = test system: EKVX NSCLC
HOP-62 NSCLC = test system: HOP-62 NSCLC
T-47D breast = test system: T-47D breast
OVCAR-4 ovarian = test system: OVCAR-4 ovarian
SR leukemia = test system: SR leukemia
SW-620 colon = test system: SW-620 colon
NCI-H226 lung = test system: NCI-H226 lung
CAKI-1 renal = test system: CAKI-1 renal
A498 renal = test system: A498 renal
DU-145 prostate = test system: DU-145 prostate
NCI-H460 lung = test system: NCI-H460 lung
UACC-62 melanoma = test system: UACC-62 melanoma
MALME-3M melanoma = test system: MALME-3M melanoma
SK-MEL-2 melanoma = test system: SK-MEL-2 melanoma
NCI-H522 lung = test system: NCI-H522 lung
BT-549 breast = test system: BT-549 breast
NCI-H23 lung = test system: NCI-H23 lung
OVCAR-5 ovarian = test system: OVCAR-5 ovarian
M14 melanoma = test system: M14 melanoma
KM12 colon = test system: KM12 colon
UO-31 renal = test system: UO-31 renal
786-0 renal = test system: 786-0 renal
RXF 393 renal = test system: RXF 393 renal
UACC-257 melanoma = test system: UACC-257 melanoma
HCT-116 colon = test system: HCT-116 colon
MDA-MB-231 breast = test system: MDA-MB-231 breast
OVCAR-8 ovarian = test system: OVCAR-8 ovarian
MOLT-4 leukemia = test system: MOLT-4 leukemia
MDA-MB-435 = test system: MDA-MB-435
HS 578T breast = test system: HS 578T breast
SN12C renal = test system: SN12C renal
SNB-75 CNS = test system: SNB-75 CNS
SF-268 CNS = test system: SF-268 CNS
SK-MEL-28 melanoma = test system: SK-MEL-28 melanoma
NCI/ADR-RES ovarian = test system: NCI/ADR-RES ovarian
SNB-19 CNS = test system: SNB-19 CNS
LOX IMVI melanoma = test system: LOX IMVI melanoma
SK-OV-3 ovarian = test system: SK-OV-3 ovarian
CCRF-CEM leukemia = test system: CCRF-CEM leukemia
HCC-2998 colon = test system: HCC-2998 colon
MCF7 breast = test system: MCF7 breast
HOP-92 NSCLC = test system: HOP-92 NSCLC
HL-60(TB) leukemia = test system: HL-60(TB) leukemia
RPMI-8226 leukemia = test system: RPMI-8226 leukemia
U251 CNS = test system: U251 CNS
IGROV1 ovarian = test system: IGROV1 ovarian
COLO 205 colon = test system: COLO 205 colon

`CCCSc1ccc2nc(NC(=O)OC)[nH]c2c1` showed a GI50 (OVCAR-3 ovarian) of 0.196 µM, a TGI (OVCAR-3 ovarian) of 0.509 µM and a GI50 (ACHN renal) of 2.64 µM. It also gave a TGI (ACHN renal) greater than 100 µM, a GI50 (K-562 leukemia) of 0.0762 µM and a TGI (K-562 leukemia) greater than 100 µM. For the same compound, the GI50 (PC-3 prostate) was 0.354 µM, the TGI (PC-3 prostate) was greater than 100 µM and the GI50 (SF-539 CNS) was 0.323 µM. The TGI (SF-539 CNS) was greater than 24.4 µM, the GI50 (HCT-15 colon) was 0.366 µM and the TGI (HCT-15 colon) was greater than 100 µM. For the same compound, the GI50 (SF-295 CNS) was 0.29 µM, the TGI (SF-295 CNS) was greater than 32.8 µM and the GI50 (SK-MEL-5 melanoma) was 0.29 µM. For the same compound, the TGI (SK-MEL-5 melanoma) was greater than 100 µM, the GI50 (HT29 colon) was 0.235 µM and the GI50 (A549 NSCLC) was 0.438 µM. The TGI (A549 NSCLC) was greater than 100 µM, the GI50 (TK-10 renal) was greater than 100 µM and the TGI (TK-10 renal) was greater than 100 µM. For the same compound, the GI50 (EKVX NSCLC) was greater than 37 µM, the TGI (EKVX NSCLC) was greater than 100 µM and the GI50 (HOP-62 NSCLC) was 0.38 µM. It also gave a TGI (HOP-62 NSCLC) greater than 68.7 µM, a GI50 (T-47D breast) of 0.298 µM and a TGI (T-47D breast) greater than 100 µM. The GI50 (OVCAR-4 ovarian) was 0.792 µM, the TGI (OVCAR-4 ovarian) was greater than 100 µM and the GI50 (SR leukemia) was 0.0482 µM. The GI50 (SW-620 colon) was 0.223 µM, the TGI (SW-620 colon) was greater than 100 µM and the GI50 (NCI-H226 lung) was 0.456 µM. For the same compound, the TGI (NCI-H226 lung) was 5.97 µM, the TGI (CAKI-1 renal) was greater than 100 µM and the GI50 (A498 renal) was 0.258 µM. It also gave a TGI (A498 renal) of 5.03 µM, a GI50 (DU-145 prostate) of 0.336 µM and a TGI (DU-145 prostate) greater than 71.5 µM. For the same compound, the GI50 (NCI-H460 lung) was 0.342 µM, the TGI (NCI-H460 lung) was greater than 100 µM and the GI50 (UACC-62 melanoma) was 0.626 µM. For the same compound, the TGI (UACC-62 melanoma) was greater than 100 µM, the GI50 (MALME-3M melanoma) was 0.425 µM and the TGI (MALME-3M melanoma) was greater than 100 µM. For the same compound, the GI50 (SK-MEL-2 melanoma) was 0.538 µM, the TGI (SK-MEL-2 melanoma) was greater than 100 µM and the GI50 (NCI-H522 lung) was 0.202 µM. The TGI (NCI-H522 lung) was 0.666 µM, the GI50 (BT-549 breast) was 1.5 µM and the TGI (BT-549 breast) was greater than 100 µM. For the same compound, the GI50 (NCI-H23 lung) was 0.585 µM, the TGI (NCI-H23 lung) was greater than 100 µM and the GI50 (OVCAR-5 ovarian) was 2.08 µM. The TGI (OVCAR-5 ovarian) was greater than 100 µM, the GI50 (M14 melanoma) was 0.26 µM and the GI50 (KM12 colon) was 0.206 µM. It also gave a TGI (KM12 colon) greater than 100 µM, a GI50 (UO-31 renal) of 0.89 µM and a TGI (UO-31 renal) greater than 100 µM. The GI50 (786-0 renal) was 0.634 µM, the TGI (786-0 renal) was greater than 100 µM and the GI50 (RXF 393 renal) was 0.208 µM. For the same compound, the TGI (RXF 393 renal) was 0.598 µM, the TGI (UACC-257 melanoma) was greater than 100 µM and the GI50 (HCT-116 colon) was 0.416 µM. It also gave a TGI (HCT-116 colon) greater than 100 µM, a GI50 (MDA-MB-231 breast) of 1.06 µM and a TGI (MDA-MB-231 breast) greater than 100 µM. For the same compound, the GI50 (OVCAR-8 ovarian) was 0.486 µM, the TGI (OVCAR-8 ovarian) was greater than 100 µM and the GI50 (MOLT-4 leukemia) was 0.547 µM. For the same compound, the TGI (MOLT-4 leukemia) was greater than 100 µM, the GI50 (MDA-MB-435) was 0.0348 µM and the TGI (MDA-MB-435) was 0.202 µM. It also gave a GI50 (HS 578T breast) of 0.378 µM, a TGI (HS 578T breast) greater than 100 µM and a GI50 (SN12C renal) of 0.823 µM. The TGI (SN12C renal) was greater than 100 µM, the GI50 (SNB-75 CNS) was 0.143 µM and the GI50 (SF-268 CNS) was 1.34 µM. The TGI (SF-268 CNS) was greater than 100 µM, the GI50 (SK-MEL-28 melanoma) was 0.952 µM and the TGI (SK-MEL-28 melanoma) was greater than 100 µM. For the same compound, the GI50 (NCI/ADR-RES ovarian) was 0.227 µM, the GI50 (SNB-19 CNS) was 0.525 µM and the TGI (SNB-19 CNS) was greater than 100 µM. It also gave a GI50 (LOX IMVI melanoma) of 0.718 µM, a TGI (LOX IMVI melanoma) greater than 100 µM and a GI50 (SK-OV-3 ovarian) of 0.285 µM. The TGI (SK-OV-3 ovarian) was 2.91 µM, the GI50 (CCRF-CEM leukemia) was 0.276 µM and the TGI (CCRF-CEM leukemia) was greater than 100 µM. It also gave a GI50 (HCC-2998 colon) of 1.01 µM, a TGI (HCC-2998 colon) greater than 33.8 µM and a GI50 (MCF7 breast) of 0.38 µM. It also gave a TGI (MCF7 breast) greater than 100 µM, a GI50 (HOP-92 NSCLC) of 0.712 µM and a TGI (HOP-92 NSCLC) greater than 100 µM. It also gave a GI50 (HL-60(TB) leukemia) of 0.228 µM, a TGI (HL-60(TB) leukemia) of 0.791 µM and a GI50 (RPMI-8226 leukemia) of 0.378 µM. For the same compound, the TGI (RPMI-8226 leukemia) was greater than 100 µM, the GI50 (U251 CNS) was 0.411 µM and the TGI (U251 CNS) was greater than 100 µM. The GI50 (IGROV1 ovarian) was 1.37 µM, the TGI (IGROV1 ovarian) was greater than 100 µM and the GI50 (COLO 205 colon) was 0.241 µM. It also gave a TGI (COLO 205 colon) of 0.702 µM.
